Assays:
[1] = centrifugation of serum at 16,000 x g; format: in vivo, rat
Experimental: The effect of centrifugation on the serum mineral complex was investigated in serum samples obtained 6 h after administration of etidronate at doses of 8 mg/100 g and 32 mg/100 g body weight. At the lower dose, no significant amount of calcium, phosphate, or MGP was sedimented after centrifugation for 30 min at 16,000×g. At the higher dose, a well-defined translucent pellet was obtained after centrifugation for 30 min at 16,000×g. This pellet was dissolved in 1 ml of 50 mM HCl and analyzed for calcium, phosphate, and MGP.

[2] = filtration of serum through a 300 kDa membrane; format: in vivo, rat
Experimental: In a typical experiment, blood was obtained from 2 control rats and from 2 rats 6 h after a dose of 8 mg etidronate/100 g, and each blood sample was immediately placed into a 2.5 ml gold top vacutainer tube (SST gel and clot activator tube, Becton Dickinson). […] The filtrate and retentate were then analyzed to determine calcium, phosphate, and volume. The typical filtrate volume recovered was 0.70 ml and the typical retentate volume recovered was 0.26 ml.

[3] = system: aorta calcification in rats treated with vitamin D plus warfarin; assay: von Kossa staining for calcification in rats treated with vitamin D plus warfarin; format: in vivo, rat; settings: 84 h; for Histology Score Observer #1 x ± S.D. / Histology Score Observer #2 x ± S.D.: score 0-5
Experimental: (§1) For measurement of mineral accumulation in arteries, each tissue was removed within 30 minutes of death and immediately frozen. Tissues were subsequently washed extensively with buffer and extracted with 1 ml of 10% formic acid for 24 h at room temperature, as described. Calcium levels in serum were determined colorimetrically using cresolphthalein complexone (Sigma) and phosphate levels in serum and in acid tissue extracts were determined calorimetrically as described (Zhu et al. (1994) Cardiology, 85: 370-377). Tissue sectioning and staining were carried out by Biomedical Testing Services, Inc., (San Diego, Calif.).
Male Sprague Dawley rats were fed ad libitum with rodent diet 5001 (Purina Mills Inc., St. Louis, Mo.), a diet that is 0.67% phosphorus and 0.95% calcium by weight. This diet contains 500 μg per kg of phylloquinone and has no added menadione. In all experiments, animals were killed by exsanguination while under metofane anesthetic, and selected tissues were removed immediately and fixed in 10% buffered formalin or frozen at −20° C. for later studies. All animal experiments were approved by the UCSD animal subjects committee.

[4] = weight, tibia length and serum calcium and phosphate in warfarin-treated rats; format: in vivo, rat
From the text: This procedure induces artery calcification within 2 weeks without the presence of hypercalcemia.

[5] = system: arotinoid-induced bone resorption; settings: relative antiresorption potency in the rat, etidronate = 1; cited from earlier work
[6] = serum levels of calcium and phosphate in rats treated with vitamin D plus warfarin; format: in vivo, rat
Experimental: as §1, with “Calif.). […]” for “Calif.).”

[7] = system: normal bone mineralization; settings: parenteral; cited from earlier work
[8] = system: vitamin D-induced artery calcification; assay: mineral phosphate accumulation in acid demineralization extracts of thoracic aorta and carotid arteries, vitamin D plus warfarin; format: in vivo, rat
Experimental: Tissues were subsequently washed extensively with buffer and extracted with 1 ml of 10% formic acid for 24 h at room temperature, as described. Calcium levels in serum were determined colorimetrically using cresolphthalein complexone (Sigma) and phosphate levels in serum and in acid tissue extracts were determined calorimetrically as described (Zhu et al. (1994) Cardiology, 85: 370-377). Tissue sectioning and staining were carried out by Biomedical Testing Services, Inc., (San Diego, Calif.). The effect of bisphosphonates on artery calcification was first examined in rats in which artery calcification was induced by treatment with warfarin plus high doses of vitamin D. […] All animals were killed by exsanguination at 96 h. […] All animals were killed by exsanguination at 96 h after the first vitamin D dose. […] All animals were killed by exsanguination 96 h after the first vitamin D injection.

[9] = 32 mg/100 gm sc, 6 h, 1 ml pooled serum prior to centrifugation
[10] = 32 mg/100 gm sc, 6 h, 16,000 x g 30 min
[11] = 8 mg/100 g sc, 6 h, 0.26 ml retentate, 300 kDa membrane
[12] = 8 mg/100 g sc, 6 h, 0.7 ml filtrate, 300 kDa membrane
[13] = 8 mg/100 g sc, 6 h, 1 ml serum prior to filtration
[14] = 8 mg/100 g, 6 h serum incubated at room temperature for 1 day
[15] = 6.25 mg P/kg/day plus warfarin, 4 weeks
[16] = 6.25 mg P/kg/day, 84 h after first vitamin D

For `CC(O)(P(=O)(O)O)P(=O)(O)O` [Etidronate, (1-hydroxyethylylidene)-bisphosphonate], the “sedimentation of calcium, phosphate or MGP” value ([1]; 8 mg/100 g, 6 h serum, 30 minutes at 16,000 x g) was “unable to demonstrate the sedimentation”, the “Calcium, Initial Serum” value [1, 9] was 9.64 µmol and the “MGP, Initial Serum” value [1, 9] was 16,200 ng. For the same compound, the “Phosphate, Initial Serum” value [1, 9] was 7.49 µmol, the “Calcium, Dissolved Pellet” value [1, 10] was 3.27 µmol and the “Calcium, Supernatant” value [1, 10] was 6.88 µmol. For the same compound, the “MGP, Dissolved Pellet” value [1, 10] was 14,400 ng, the “MGP, Supernatant” value [1, 10] was 800 ng and the “Phosphate, Dissolved Pellet” value [1, 10] was 1.68 µmol. For the same compound, the “Phosphate, Supernatant” value [1, 10] was 5.84 µmol, the “Calcium, Retentate” value [2, 11] was 2.72 µmol and the “MGP, Retentate” value [2, 11] was 11,630 ng. The “Phosphate, Retentate” value [2, 11] was 1.84 µmol, the “Calcium, Filtrate” value [2, 12] was 1.18 µmol and the “MGP, Filtrate” value [2, 12] was 291 ng. For the same compound, the “Phosphate, Filtrate” value [2, 12] was 2.98 µmol, the “Calcium, Initial Serum” value [2, 13] was 4.30 µmol and the “MGP, Initial Serum” value [2, 13] was 14,800 ng. For the same compound, the “Phosphate, Initial Serum” value [2, 13] was 5.10 µmol, the “filtrate MGP” value [2, 14] was 320 ng and the filtrate calcium [2, 14] was 1.21 µmol. The filtrate phosphate [2, 14] was 2.79 µmol, the “retentate MGP” value [2, 14] was 12,127 ng and the retentate phosphate [2, 14] was 2.02 µmol. For the same compound, the retentate calcium ([2]; 8 mg/100 g, 6 h serum incubated at room temperature for 1 day, then 300 kDa filtration) was 2.83 µmol, the “retentate and filtrate levels of calcium, phosphate and MGP vs serum filtered immediately” value ([2]; serum frozen on dry ice and thawed 5 times) was “comparable” and the “Histology Score Observer #1 x ± S.D.” value ([3]; 0.25 mg P/kg/day sc) was 3.5 ± 1.3. For the same compound, the “Histology Score Observer #2 x ± S.D.” value ([3]; 0.25 mg P/kg/day sc) was 4.5 ± 1.0, the “Histology Score Observer #1 x ± S.D.” value ([3]; 1.25 mg P/kg/day sc) was 1.8 ± 2.4 and the “Histology Score Observer #2 x ± S.D.” value ([3]; 1.25 mg P/kg/day sc) was 2.0 ± 2.4. The “Histology Score Observer #1 x ± S.D.” value ([3]; 6.25 mg P/kg/day sc) was 0.3 ± 0.5, the “Histology Score Observer #2 x ± S.D.” value ([3]; 6.25 mg P/kg/day sc) was 0.1 ± 0.3 and the “extent of von Kossa staining in the abdominal aorta” value ([3]; 6.25 mg P/kg/day, highest dose tested) was “significantly reduced”. For the same compound, the “final length of the tibia” value ([4]; 6.25 mg P/kg/day plus warfarin 4 weeks, warfarin alone 3.80±0.04, p<0.001) was 3.59±0.03 cm, the Ending wt [4, 15] was 238 ± 11 gm and the “effect on weight gain” value [4, 15] was “inhibits weight gain”. The “mg Ca dl serum” value [4, 15] was 10.9 ± 0.8 mg/dL, the “mg P dl serum” value [4, 15] was 8.1 ± 0.6 mg/dL and the “Bone Resorption Relative potency” value [5] was 1. The “Serum Ca” value ([6]; 0.25 mg P/kg/day, 84 h) was 13.7 ± 1.2 mg/dL, the “Serum P” value ([6]; 0.25 mg P/kg/day, 84 h) was 10.8 ± 0.5 mg/dL and the “Serum Ca” value ([6]; 1.25 mg P/kg/day, 84 h) was 13.5 ± 0.7 mg/dL. The “Serum P” value ([6]; 1.25 mg P/kg/day, 84 h) was 9.5 ± 0.3 mg/dL, the “Serum Ca” value [6, 16] was 15.0 ± 0.5 mg/dL and the “Serum P” value [6, 16] was 8.2 ± 0.4 mg/dL. The “dose required to inhibit normal bone mineralization in vivo” value [7] was “about 5 mg P/kg/day”, the “dose required to reduce the extent of mineralization by half in the thoracic aorta” value ([8]; 84 h, FIG. 3) was 2 mg P/kg/day and the “dose required to reduce the extent of mineralization by half in the carotid artery” value ([8]; 84 h, FIG. 4) was 2 mg P/kg/day. For the same compound, the “Artery Calcification Dose for 50% inhibition” value ([8]; daily subcutaneous dose, vitamin D-induced artery calcification, male rats initially 200 g) was 2 mg P/kg/day and the “Artery Calcification Relative potency” value ([8]; relative to etidronate = 1) was 1.

Reference: patent publication US6812034B2, “Fetuin-MGP-mineral complex in serum assayed to determine calcification risk” (The Regents of the University of California, priority 2000, dated 2004)
